Values quoted from earlier work, collected in patent US10071030B2, “Carrier comprising non-neutralised tocopheryl phosphate” (Phosphagenics Limited, priority 2010, dated 2018).

Conditions: from dietary sources

bioavailable fraction of CoQ10: 5 to 10%
Compound: COC1=C(OC)C(=O)C(C/C=C(\C)CC/C=C(\C)CC/C=C(\C)CC/C=C(\C)CC/C=C(\C)CC/C=C(\C)CC/C=C(\C)CC/C=C(\C)CC/C=C(\C)CCC=C(C)C)=C(C)C1=O [CoQ10, ubiquinone]
